From ChEMBL document CHEMBL3991601, “The target landscape of clinical kinase drugs” (Science, 2017)
The source made the active and inactive calls.

Columns and labels:
Actin-related protein 2 = Actin-related protein 2 (Homo sapiens, UniProt P61160)
[1] = molecular target: Serine/threonine-protein kinase MRCK alpha (Homo sapiens, UniProt Q5VT25)
[2] = molecular target: Casein kinase I isoform delta (Homo sapiens, UniProt P48730)
[3] = molecular target: T1, Inhibitor of nuclear factor kappa-B kinase subunit epsilon (Homo sapiens, UniProt Q14164)
T1 sequence (Q14164 whole entry): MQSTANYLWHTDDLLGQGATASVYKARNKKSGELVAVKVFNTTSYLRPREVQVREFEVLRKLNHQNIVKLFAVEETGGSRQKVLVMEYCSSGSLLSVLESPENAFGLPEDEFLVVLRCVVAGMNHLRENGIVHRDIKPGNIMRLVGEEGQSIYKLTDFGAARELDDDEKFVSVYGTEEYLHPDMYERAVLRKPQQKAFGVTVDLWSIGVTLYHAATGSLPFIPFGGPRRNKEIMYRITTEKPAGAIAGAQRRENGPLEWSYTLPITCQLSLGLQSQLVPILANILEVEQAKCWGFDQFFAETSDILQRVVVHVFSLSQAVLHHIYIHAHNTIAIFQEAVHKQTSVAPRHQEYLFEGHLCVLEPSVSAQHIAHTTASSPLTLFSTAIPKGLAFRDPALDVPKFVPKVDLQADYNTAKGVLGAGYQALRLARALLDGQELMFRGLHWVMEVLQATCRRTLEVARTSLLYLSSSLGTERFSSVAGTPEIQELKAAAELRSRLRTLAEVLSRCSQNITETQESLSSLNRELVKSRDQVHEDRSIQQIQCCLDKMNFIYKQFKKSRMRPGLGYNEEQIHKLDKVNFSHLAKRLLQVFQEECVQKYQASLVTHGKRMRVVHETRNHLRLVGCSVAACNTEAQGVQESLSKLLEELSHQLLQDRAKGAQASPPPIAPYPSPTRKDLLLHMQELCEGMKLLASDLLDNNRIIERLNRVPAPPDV

Scaffold protein ILK = molecular target: T2, Scaffold protein ILK (Homo sapiens, UniProt Q13418)
T2 sequence (Q13418 whole entry): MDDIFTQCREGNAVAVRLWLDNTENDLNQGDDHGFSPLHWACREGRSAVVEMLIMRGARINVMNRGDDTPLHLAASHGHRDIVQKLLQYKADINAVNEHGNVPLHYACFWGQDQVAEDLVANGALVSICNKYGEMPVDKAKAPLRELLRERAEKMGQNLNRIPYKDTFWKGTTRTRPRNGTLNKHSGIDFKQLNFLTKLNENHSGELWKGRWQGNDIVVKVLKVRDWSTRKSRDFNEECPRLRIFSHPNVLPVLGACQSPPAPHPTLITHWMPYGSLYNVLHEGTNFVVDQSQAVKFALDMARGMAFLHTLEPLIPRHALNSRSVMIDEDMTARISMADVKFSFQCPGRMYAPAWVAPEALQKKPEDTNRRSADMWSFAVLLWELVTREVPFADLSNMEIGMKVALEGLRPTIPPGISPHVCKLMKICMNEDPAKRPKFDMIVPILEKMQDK

[4] = molecular target: Tyrosine-protein kinase JAK1 (Homo sapiens, UniProt P23458)
[5] = molecular target: T3, DNA replication licensing factor MCM4 (Homo sapiens, UniProt P33991)
T3 sequence (P33991 whole entry): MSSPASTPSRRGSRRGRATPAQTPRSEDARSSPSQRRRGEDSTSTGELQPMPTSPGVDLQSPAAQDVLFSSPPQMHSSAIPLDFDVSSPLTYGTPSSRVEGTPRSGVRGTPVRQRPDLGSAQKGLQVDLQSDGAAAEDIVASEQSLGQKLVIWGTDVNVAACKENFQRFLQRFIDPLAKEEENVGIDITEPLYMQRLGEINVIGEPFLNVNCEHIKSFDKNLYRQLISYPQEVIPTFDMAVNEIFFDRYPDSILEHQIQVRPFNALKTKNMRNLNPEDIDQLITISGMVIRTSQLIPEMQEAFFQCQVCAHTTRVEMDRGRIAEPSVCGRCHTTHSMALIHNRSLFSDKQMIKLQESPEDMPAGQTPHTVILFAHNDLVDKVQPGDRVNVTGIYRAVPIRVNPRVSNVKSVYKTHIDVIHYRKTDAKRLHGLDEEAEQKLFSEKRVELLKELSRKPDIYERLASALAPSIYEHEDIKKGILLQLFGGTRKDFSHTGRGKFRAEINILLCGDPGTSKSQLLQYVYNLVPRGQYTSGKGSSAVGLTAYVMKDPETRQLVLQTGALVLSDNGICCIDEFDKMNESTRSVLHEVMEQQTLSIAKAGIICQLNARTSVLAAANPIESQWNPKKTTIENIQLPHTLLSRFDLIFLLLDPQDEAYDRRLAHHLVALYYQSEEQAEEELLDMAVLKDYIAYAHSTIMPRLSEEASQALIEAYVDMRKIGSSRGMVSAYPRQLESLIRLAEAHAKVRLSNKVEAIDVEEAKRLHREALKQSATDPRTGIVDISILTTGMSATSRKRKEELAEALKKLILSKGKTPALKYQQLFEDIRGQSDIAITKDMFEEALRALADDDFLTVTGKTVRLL

[6] = molecular target: cAMP-dependent protein kinase type II-alpha regulatory subunit (Homo sapiens, UniProt P13861)
[7] = molecular target: Protein kinase C beta type (Homo sapiens, UniProt P05771)
[8] = molecular target: 26S proteasome regulatory subunit 6B (Homo sapiens, UniProt P43686)
[9] = molecular target: Serine/threonine-protein kinase 10 (Homo sapiens, UniProt O94804)
[10] = molecular target: T4, EKC/KEOPS complex subunit TP53RK (Homo sapiens, UniProt Q96S44)
T4 sequence (Q96S44 whole entry): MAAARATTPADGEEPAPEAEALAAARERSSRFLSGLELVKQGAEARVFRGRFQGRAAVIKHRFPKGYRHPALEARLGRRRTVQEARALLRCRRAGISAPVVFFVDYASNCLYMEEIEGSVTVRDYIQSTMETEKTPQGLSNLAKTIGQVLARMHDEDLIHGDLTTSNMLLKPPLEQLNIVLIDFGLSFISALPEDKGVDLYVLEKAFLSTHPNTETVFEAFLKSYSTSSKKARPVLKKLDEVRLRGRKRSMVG
Also: in the data inactive means no Kd found up to 30 µM.

Chain of Serine/threonine-protein kinase MRCK alpha (Q5VT25 whole entry, canonical isoform): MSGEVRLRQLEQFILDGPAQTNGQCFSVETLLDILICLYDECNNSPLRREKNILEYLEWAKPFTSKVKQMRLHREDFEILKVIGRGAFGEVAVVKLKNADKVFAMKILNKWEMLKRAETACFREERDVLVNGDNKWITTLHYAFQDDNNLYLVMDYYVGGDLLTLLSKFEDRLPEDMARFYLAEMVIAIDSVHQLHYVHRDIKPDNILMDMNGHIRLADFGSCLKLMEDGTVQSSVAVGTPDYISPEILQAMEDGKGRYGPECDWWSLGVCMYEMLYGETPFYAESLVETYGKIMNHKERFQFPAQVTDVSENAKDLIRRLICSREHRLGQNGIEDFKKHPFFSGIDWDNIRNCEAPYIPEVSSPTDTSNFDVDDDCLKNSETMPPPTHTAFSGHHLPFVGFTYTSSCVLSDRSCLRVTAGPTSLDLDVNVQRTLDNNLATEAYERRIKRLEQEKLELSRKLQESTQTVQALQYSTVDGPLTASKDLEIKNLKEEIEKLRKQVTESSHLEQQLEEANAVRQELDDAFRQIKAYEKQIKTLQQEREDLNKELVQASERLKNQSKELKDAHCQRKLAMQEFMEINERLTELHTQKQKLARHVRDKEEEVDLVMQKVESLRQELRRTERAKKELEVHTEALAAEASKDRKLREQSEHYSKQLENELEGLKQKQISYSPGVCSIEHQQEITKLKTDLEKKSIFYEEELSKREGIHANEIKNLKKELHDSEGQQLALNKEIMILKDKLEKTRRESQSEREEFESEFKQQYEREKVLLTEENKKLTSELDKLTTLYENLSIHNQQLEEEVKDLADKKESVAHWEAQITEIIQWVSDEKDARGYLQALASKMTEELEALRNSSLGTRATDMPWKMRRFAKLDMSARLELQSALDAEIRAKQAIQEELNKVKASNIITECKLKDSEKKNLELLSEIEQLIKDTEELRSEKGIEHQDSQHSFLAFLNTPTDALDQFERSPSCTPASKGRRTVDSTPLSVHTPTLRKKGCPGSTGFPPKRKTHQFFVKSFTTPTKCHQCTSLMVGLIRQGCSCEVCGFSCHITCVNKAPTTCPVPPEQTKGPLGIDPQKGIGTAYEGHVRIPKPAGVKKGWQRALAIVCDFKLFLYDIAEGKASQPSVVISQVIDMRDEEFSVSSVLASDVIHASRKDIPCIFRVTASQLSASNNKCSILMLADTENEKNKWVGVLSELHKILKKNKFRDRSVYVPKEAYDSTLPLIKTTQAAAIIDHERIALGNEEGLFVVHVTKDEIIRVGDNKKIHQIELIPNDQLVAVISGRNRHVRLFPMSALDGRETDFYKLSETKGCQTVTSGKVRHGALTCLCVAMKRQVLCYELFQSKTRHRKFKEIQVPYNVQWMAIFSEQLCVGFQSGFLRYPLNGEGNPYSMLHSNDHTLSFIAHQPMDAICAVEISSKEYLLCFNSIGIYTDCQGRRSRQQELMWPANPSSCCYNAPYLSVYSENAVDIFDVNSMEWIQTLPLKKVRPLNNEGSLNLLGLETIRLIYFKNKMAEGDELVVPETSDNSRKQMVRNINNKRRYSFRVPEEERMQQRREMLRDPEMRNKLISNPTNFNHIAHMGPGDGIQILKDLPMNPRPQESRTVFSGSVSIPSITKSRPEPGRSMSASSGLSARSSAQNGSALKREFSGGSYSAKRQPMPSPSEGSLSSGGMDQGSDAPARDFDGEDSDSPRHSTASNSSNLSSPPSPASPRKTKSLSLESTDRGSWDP
Chain of 26S proteasome regulatory subunit 6B (P43686 whole entry): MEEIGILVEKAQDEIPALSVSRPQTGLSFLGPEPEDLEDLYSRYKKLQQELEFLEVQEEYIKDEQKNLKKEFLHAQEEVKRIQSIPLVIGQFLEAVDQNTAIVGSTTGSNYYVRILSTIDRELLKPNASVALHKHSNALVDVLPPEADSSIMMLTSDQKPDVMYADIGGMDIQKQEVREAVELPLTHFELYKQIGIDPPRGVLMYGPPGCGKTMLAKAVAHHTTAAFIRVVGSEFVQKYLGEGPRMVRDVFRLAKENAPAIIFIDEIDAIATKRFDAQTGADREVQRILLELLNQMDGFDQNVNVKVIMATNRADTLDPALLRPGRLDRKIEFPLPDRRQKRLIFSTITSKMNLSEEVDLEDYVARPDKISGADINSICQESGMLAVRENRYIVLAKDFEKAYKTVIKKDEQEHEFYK
Chain of Protein kinase C beta type (P05771 whole entry): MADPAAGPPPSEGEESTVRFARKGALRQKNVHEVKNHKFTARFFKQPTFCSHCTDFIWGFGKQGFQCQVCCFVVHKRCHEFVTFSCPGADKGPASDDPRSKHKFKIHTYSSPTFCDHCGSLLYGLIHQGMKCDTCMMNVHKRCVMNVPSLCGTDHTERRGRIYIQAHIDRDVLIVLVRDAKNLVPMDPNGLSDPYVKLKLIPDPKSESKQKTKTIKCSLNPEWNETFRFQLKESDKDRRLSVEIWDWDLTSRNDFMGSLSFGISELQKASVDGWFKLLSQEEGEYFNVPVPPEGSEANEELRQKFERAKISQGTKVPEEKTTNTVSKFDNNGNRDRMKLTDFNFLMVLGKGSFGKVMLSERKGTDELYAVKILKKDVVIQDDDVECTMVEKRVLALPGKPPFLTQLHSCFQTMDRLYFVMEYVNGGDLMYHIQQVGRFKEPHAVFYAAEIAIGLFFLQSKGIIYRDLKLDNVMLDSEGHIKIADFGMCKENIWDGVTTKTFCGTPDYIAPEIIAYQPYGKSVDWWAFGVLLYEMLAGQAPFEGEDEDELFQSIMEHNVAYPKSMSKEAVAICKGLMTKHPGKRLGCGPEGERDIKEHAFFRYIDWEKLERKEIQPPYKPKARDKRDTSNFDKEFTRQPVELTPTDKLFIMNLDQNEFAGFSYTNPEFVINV
Chain of Casein kinase I isoform delta (P48730 whole entry, canonical isoform): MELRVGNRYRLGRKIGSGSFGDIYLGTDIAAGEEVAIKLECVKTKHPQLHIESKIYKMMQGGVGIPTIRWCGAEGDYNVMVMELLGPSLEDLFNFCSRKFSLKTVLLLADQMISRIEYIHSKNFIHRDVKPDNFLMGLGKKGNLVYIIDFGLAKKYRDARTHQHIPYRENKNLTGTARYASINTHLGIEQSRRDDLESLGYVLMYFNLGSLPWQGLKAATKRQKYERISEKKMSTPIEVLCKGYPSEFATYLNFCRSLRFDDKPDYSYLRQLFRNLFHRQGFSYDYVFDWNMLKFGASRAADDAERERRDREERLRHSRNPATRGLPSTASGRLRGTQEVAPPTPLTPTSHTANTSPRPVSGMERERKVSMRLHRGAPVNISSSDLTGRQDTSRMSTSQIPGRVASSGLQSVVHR
Chain of Serine/threonine-protein kinase 10 (O94804 whole entry): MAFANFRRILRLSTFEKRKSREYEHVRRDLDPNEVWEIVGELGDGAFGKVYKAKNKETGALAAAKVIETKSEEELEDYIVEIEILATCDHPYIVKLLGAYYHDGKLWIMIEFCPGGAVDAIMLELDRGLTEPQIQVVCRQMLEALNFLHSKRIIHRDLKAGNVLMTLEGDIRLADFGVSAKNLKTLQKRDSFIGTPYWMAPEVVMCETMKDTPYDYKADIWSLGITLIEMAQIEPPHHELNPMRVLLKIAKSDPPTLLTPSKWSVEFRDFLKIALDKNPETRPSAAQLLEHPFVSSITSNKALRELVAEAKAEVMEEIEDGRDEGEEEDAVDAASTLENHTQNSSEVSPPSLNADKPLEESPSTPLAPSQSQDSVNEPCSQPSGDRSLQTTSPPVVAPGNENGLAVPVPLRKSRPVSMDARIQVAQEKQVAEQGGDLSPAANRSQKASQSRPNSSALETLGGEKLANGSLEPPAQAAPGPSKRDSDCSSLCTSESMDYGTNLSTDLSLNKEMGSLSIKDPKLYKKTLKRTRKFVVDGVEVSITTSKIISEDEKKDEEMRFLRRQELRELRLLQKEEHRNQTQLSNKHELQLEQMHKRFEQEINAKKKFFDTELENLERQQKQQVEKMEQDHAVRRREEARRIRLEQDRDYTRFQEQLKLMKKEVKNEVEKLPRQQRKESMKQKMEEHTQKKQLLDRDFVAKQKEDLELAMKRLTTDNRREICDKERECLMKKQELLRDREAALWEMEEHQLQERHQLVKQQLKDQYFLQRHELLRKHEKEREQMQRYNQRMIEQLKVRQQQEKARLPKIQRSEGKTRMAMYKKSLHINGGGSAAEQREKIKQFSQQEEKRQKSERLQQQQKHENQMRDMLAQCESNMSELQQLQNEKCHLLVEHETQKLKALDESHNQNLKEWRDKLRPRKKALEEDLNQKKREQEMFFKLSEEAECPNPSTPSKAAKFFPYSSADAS
Chain of cAMP-dependent protein kinase type II-alpha regulatory subunit (P13861 whole entry): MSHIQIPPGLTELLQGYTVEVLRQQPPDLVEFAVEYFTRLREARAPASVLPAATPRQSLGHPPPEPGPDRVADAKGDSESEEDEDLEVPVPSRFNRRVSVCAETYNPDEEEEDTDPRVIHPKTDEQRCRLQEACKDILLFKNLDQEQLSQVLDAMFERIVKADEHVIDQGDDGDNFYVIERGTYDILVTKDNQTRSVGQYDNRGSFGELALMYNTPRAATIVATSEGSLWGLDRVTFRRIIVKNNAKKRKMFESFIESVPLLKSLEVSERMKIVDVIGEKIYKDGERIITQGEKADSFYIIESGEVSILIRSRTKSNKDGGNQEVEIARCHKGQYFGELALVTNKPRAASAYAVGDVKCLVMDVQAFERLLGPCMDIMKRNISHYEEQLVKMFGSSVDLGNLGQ

Compound | Kd (Actin-related protein 2) | Kd [1] | Kd [2] | Kd [3] | Kd (Scaffold protein ILK) | Kd [4] | Kd [5] | Kd [6] | Kd [7] | Kd [8] | Kd [9] | Kd [10]
CCNC(=O)C#Cc1ccc2c(c1)NC(=O)/C2=C(\Nc1ccc(CN(C)C)cc1)c1ccccc1 | > 30 µM (inactive) | > 30 µM (inactive) | > 30 µM (inactive) | 0.408 µM (active) | > 30 µM (inactive) | > 30 µM (inactive) | > 30 µM (inactive) | > 30 µM (inactive) | > 30 µM (inactive) | > 30 µM (inactive) | 0.136 µM (active) | > 30 µM (inactive)
COc1ccc(S(=O)(=O)N(C(C)=O)c2ccccc2/C=C/c2cc[n+]([O-])cc2)cc1 [HMN-214] | > 30 µM (inactive) | > 30 µM (inactive) | > 30 µM (inactive) | > 30 µM (inactive) | > 30 µM (inactive) | > 30 µM (inactive) | – | > 30 µM (inactive) | > 30 µM (inactive) | > 30 µM (inactive) | > 30 µM (inactive) | > 30 µM (inactive)
CCCCCCCCCCCCCCCCCCOP(=O)([O-])OC1CC[N+](C)(C)CC1 [PERIFOSINE] | > 30 µM (inactive) | > 30 µM (inactive) | > 30 µM (inactive) | > 30 µM (inactive) | > 30 µM (inactive) | > 30 µM (inactive) | > 30 µM (inactive) | – | > 30 µM (inactive) | > 30 µM (inactive) | > 30 µM (inactive) | > 30 µM (inactive)
C[C@@H](N)c1ccc(C(=O)Nc2ccnc3[nH]ccc23)cc1 [Y-39983] | > 30 µM (inactive) | > 30 µM (inactive) | > 30 µM (inactive) | > 30 µM (inactive) | > 30 µM (inactive) | > 30 µM (inactive) | > 30 µM (inactive) | – | 6.03 µM (active) | > 30 µM (inactive) | > 30 µM (inactive) | > 30 µM (inactive)

Now from value to compound:

Kd (Actin-related protein 2) | Kd [1] | Kd [2] | Kd [3] | Kd (Scaffold protein ILK) | Kd [4] | Kd [5] | Kd [6] | Kd [7] | Kd [8] | Kd [9] | Kd [10] | Compound
> 30 µM (inactive) | > 30 µM (inactive) | > 30 µM (inactive) | > 30 µM (inactive) | > 30 µM (inactive) | > 30 µM (inactive) | > 30 µM (inactive) | > 30 µM (inactive) | > 30 µM (inactive) | > 30 µM (inactive) | > 30 µM (inactive) | > 30 µM (inactive) | C=CC(=O)N1CCC[C@H](n2c(=O)n(-c3ccc(Oc4ccccc4)cc3)c3c(N)ncnc32)C1
> 30 µM (inactive) | > 30 µM (inactive) | > 30 µM (inactive) | > 30 µM (inactive) | > 30 µM (inactive) | > 30 µM (inactive) | > 30 µM (inactive) | > 30 µM (inactive) | > 30 µM (inactive) | > 30 µM (inactive) | > 30 µM (inactive) | > 30 µM (inactive) | COCc1c(-c2ccc(NC(=O)Nc3cc(C(F)(F)F)ccc3F)c(F)c2)c2c(N)ncnn2c1CN1CCOCC1
> 30 µM (inactive) | > 30 µM (inactive) | > 30 µM (inactive) | > 30 µM (inactive) | > 30 µM (inactive) | > 30 µM (inactive) | > 30 µM (inactive) | > 30 µM (inactive) | > 30 µM (inactive) | > 30 µM (inactive) | > 30 µM (inactive) | > 30 µM (inactive) | Nc1ncnc2c1c(-c1cccc(OCc3ccccc3)c1)cn2[C@H]1C[C@@H](CN2CCC2)C1 [AEW-541]
> 30 µM (inactive) | > 30 µM (inactive) | > 30 µM (inactive) | 0.215 µM (active) | > 30 µM (inactive) | 0.368 µM (active) | > 30 µM (inactive) | > 30 µM (inactive) | 3.38 µM (active) | > 30 µM (inactive) | 0.082 µM (active) | > 30 µM (inactive) | O=C(Nc1c[nH]nc1-c1nc2cc(CN3CCOCC3)ccc2[nH]1)NC1CC1 [AT-9283]
– | > 30 µM (inactive) | 0.236 µM (active) | 2.97 µM (active) | > 30 µM (inactive) | > 30 µM (inactive) | > 30 µM (inactive) | > 30 µM (inactive) | > 30 µM (inactive) | > 30 µM (inactive) | > 30 µM (inactive) | > 30 µM (inactive) | CNC(=O)c1nn(C)c2c1C(C)(C)Cc1cnc(Nc3ccc(N4CCN(C)CC4)cc3)nc1-2 [MILCICLIB]
